Measured values as given in the NIST ThermoML archive (doi:10.1016/j.jct.2011.07.005).

Conditions: Liquid; for mass density: Vibrating tube method

CCCCC(CC)COC(=O)CCCCCCCCC(=O)OCC(CC)CCCC (centres undefined) [bis(2-ethylhexyl) decanedioate]
Conditions | mass density [kg/m3] | viscosity [mPa·s]
278.15 K, 101.33 kPa | 924.7 | –
278.15 K, Concentric cylinders viscometry | – | 42.04
283.15 K, 101.33 kPa | 921.2 | –
283.15 K, Concentric cylinders viscometry | – | 32.77
288.15 K, 101.33 kPa | 917.6 | –
288.15 K, Concentric cylinders viscometry | – | 26.01
293.15 K, 101.33 kPa | 913.9 | –
293.15 K, Concentric cylinders viscometry | – | 21
298.15 K, 100 kPa | 909.8 | –
298.15 K, 101.33 kPa | 910.3 | –
298.15 K, 1000 kPa | 910.4 | –
298.15 K, 5000 kPa | 912.8 | –
298.15 K, 10000 kPa | 915.6 | –
298.15 K, 15000 kPa | 918.4 | –
298.15 K, 20000 kPa | 921.2 | –
298.15 K, 30000 kPa | 926.4 | –
298.15 K, 40000 kPa | 931.4 | –
298.15 K, 45000 kPa | 933.8 | –
298.15 K, 50000 kPa | 936.1 | –
298.15 K, 60000 kPa | 940.6 | –
298.15 K, Concentric cylinders viscometry | – | 17.21
303.15 K, 101.33 kPa | 906.7 | –
303.15 K, Concentric cylinders viscometry | – | 14.32
308.15 K, 101.33 kPa | 903.1 | –
308.15 K, Concentric cylinders viscometry | – | 12.07
313.15 K, 101.33 kPa | 899.5 | –
313.15 K, Concentric cylinders viscometry | – | 10.28
318.15 K, 101.33 kPa | 895.9 | –
318.15 K, Concentric cylinders viscometry | – | 8.845
323.15 K, 100 kPa | 892 | –
323.15 K, 101.33 kPa | 892.3 | –
323.15 K, 1000 kPa | 892.6 | –
323.15 K, 5000 kPa | 895.3 | –
323.15 K, 10000 kPa | 898.5 | –
323.15 K, 15000 kPa | 901.7 | –
323.15 K, 20000 kPa | 904.7 | –
323.15 K, 30000 kPa | 910.4 | –
323.15 K, 40000 kPa | 915.8 | –
323.15 K, 45000 kPa | 918.4 | –
323.15 K, 50000 kPa | 920.9 | –
323.15 K, 60000 kPa | 925.7 | –
323.15 K, Concentric cylinders viscometry | – | 7.679
328.15 K, 101.33 kPa | 888.7 | –
328.15 K, Concentric cylinders viscometry | – | 6.727
333.15 K, 101.33 kPa | 885.1 | –
333.15 K, Concentric cylinders viscometry | – | 5.939
338.15 K, 101.33 kPa | 881.4 | –
338.15 K, Concentric cylinders viscometry | – | 5.275
343.15 K, 101.33 kPa | 877.9 | –
343.15 K, Concentric cylinders viscometry | – | 4.719
348.15 K, 100 kPa | 874 | –
348.15 K, 101.33 kPa | 874.3 | –
348.15 K, 1000 kPa | 874.7 | –
348.15 K, 5000 kPa | 877.7 | –
348.15 K, 10000 kPa | 881.3 | –
348.15 K, 15000 kPa | 884.8 | –
348.15 K, 20000 kPa | 888.2 | –
348.15 K, 30000 kPa | 894.5 | –
348.15 K, 40000 kPa | 900.5 | –
348.15 K, 45000 kPa | 903.3 | –
348.15 K, 50000 kPa | 906 | –
348.15 K, 60000 kPa | 911.3 | –
348.15 K, Concentric cylinders viscometry | – | 4.248
353.15 K, 101.33 kPa | 870.7 | –
353.15 K, Concentric cylinders viscometry | – | 3.843
358.15 K, 101.33 kPa | 867.1 | –
358.15 K, Concentric cylinders viscometry | – | 3.494
363.15 K, 101.33 kPa | 863.7 | –
363.15 K, Concentric cylinders viscometry | – | 3.169
368.15 K, 101.33 kPa | 859.9 | –
368.15 K, Concentric cylinders viscometry | – | 2.902
373.15 K, 101.33 kPa | 856.4 | –
373.15 K, 1000 kPa | 856.9 | –
373.15 K, 5000 kPa | 860.3 | –
373.15 K, 10000 kPa | 864.3 | –
373.15 K, 15000 kPa | 868.1 | –
373.15 K, 20000 kPa | 871.8 | –
373.15 K, 30000 kPa | 878.8 | –
373.15 K, 40000 kPa | 885.2 | –
373.15 K, 45000 kPa | 888.3 | –
373.15 K, 50000 kPa | 891.3 | –
373.15 K, 60000 kPa | 897 | –
373.15 K, Concentric cylinders viscometry | – | 2.661
398.15 K, 1000 kPa | 839 | –
398.15 K, 5000 kPa | 842.8 | –
398.15 K, 10000 kPa | 847.3 | –
398.15 K, 15000 kPa | 851.6 | –
398.15 K, 20000 kPa | 855.8 | –
398.15 K, 30000 kPa | 863.4 | –
398.15 K, 40000 kPa | 870.4 | –
398.15 K, 45000 kPa | 873.7 | –
398.15 K, 50000 kPa | 877 | –
398.15 K, 60000 kPa | 883.1 | –

viscosity [mPa·s], Falling or rolling sphere viscometry
Conditions | 298.15 K | 313.15 K | 323.15 K | 348.15 K | 373.15 K | 398.15 K
100 kPa | 17 | 10.2 | 7.53 | 4.17 | 2.67 | 1.84
1000 kPa | 17.3 | 10.3 | 7.63 | 4.21 | 2.7 | 1.86
5000 kPa | 18.4 | 10.9 | 8.09 | 4.42 | 2.84 | 1.96
10000 kPa | 19.9 | 11.7 | 8.68 | 4.69 | 3.03 | 2.07
15000 kPa | 21.5 | 12.5 | 9.29 | 4.97 | 3.22 | 2.2
20000 kPa | 23.2 | 13.4 | 9.94 | 5.28 | 3.42 | 2.32
30000 kPa | 26.8 | 15.2 | 11.3 | 5.94 | 3.83 | 2.59
40000 kPa | 30.8 | 17.3 | 12.8 | 6.68 | 4.27 | 2.86
45000 kPa | 33 | 18.4 | 13.6 | 7.07 | 4.49 | 3.01
50000 kPa | 35.2 | 19.6 | 14.4 | 7.48 | 4.72 | 3.16
60000 kPa | 40 | 22 | 16 | 8.37 | 5.19 | 3.46
